Tests used:
[1] = test system: MDBK cells (Madin-Darby bovine kidney); assay: Cytotoxicity in MDBK cells (no BVD virus added); details: MDBK cells, no virus, 50% toxic effects
[2] = test system: Bovine viral diarrhea (BVD) virus; assay: Anti-BVDV CPE inhibition assay in MDBK cells; details: for SI (selectivity index, ratio of CC50 and EC50): CC50/EC50, MDBK cells, BVD virus
[3] = test system: BVDV type 2 strain 1373; details: 5 mg/kg i.v. 2x daily; for Animals showing signs of dehydration / Samples virus isolation positive for BVDV in total / Adverse side effects on serial complete blood cell counts or serum chemistry panels / Period in which leukopenia (<5000 leukocytes/μL) was seen / Adverse drug reactions on daily clinical monitoring / Clinical scores compared to calves receiving diluent only: 10 days; for Buffy coat samples virus isolation positive: Days 6-10, 20 samples per group; for Samples virus isolation positive for BVDV in total: all sample types and time points; for Nasal swab samples virus isolation positive: by Day 12, 28 samples per group; for Adverse side effects on serial complete blood cell counts or serum chemistry panels / Period in which leukopenia (<5000 leukocytes/μL) was seen / Adverse drug reactions on daily clinical monitoring: calves; for Adverse drug reactions on daily clinical monitoring: Day 0 to Day 28; for Clinical scores compared to calves receiving diluent only: composite of dehydration, appearance, appetite, diarrhea
[4] = Cytotoxicity in MDBK cells (no BVD virus added); details: bovine, MDBK cells (Madin-Darby bovine kidney), no virus added
[5] = test system: classical swine fever virus (CSFV) strain Alfort 187; assay: microbe, parasite or virus in culture; type: cell-based; details: PK-15, in Sus scrofa, 48 h
[6] = test system: BVDV type 1 strain SD1; details: 2 mg/kg i.v. 3x daily
[7] = Bovine viral diarrhea virus isolates and strains, MDBK, in Bos taurus, 96 h

With OCc1ccccc1-c1cc2ccn(Cn3nnc4ccccc43)cc-2n1 [Compound V, [2-(6-((1H-Benzotriazol)-1-yl)methyl-6H-pyrrolo[2,3-c]pyridin-2-yl)-phenyl]-methanol] the CC50 [1] was > 50000 nM and the EC50 ([2]; BVD virus approx. 100 TCID50, MDBK cells, four days, 50% inhibition of CPE) was 81 ± 1 nM.
With Cc1c(-c2nc3ccn(Cc4cc(-c5cc(F)ccc5F)no4)cc-3n2)cnn1C [CPD-7, 3-(2,5-difluorophenyl)-5-((2-(1,5-dimethyl-1H-pyrazol-4-yl)-5H-imidazo[4,5-c]pyridin-5-yl)methyl)isoxazole] the “Animals showing signs of dehydration” value [3] was “None”, the “Buffy coat samples virus isolation positive” value [3] was 50% and the “Samples virus isolation positive for BVDV in total” value [3] was 28 samples. For the same compound, the “Nasal swab samples virus isolation positive” value [3] was 29%, the “Adverse side effects on serial complete blood cell counts or serum chemistry panels” value [3] was “No evidence of adverse side effects” and the “Period in which leukopenia (<5000 leukocytes/μL) was seen” value [3] was 6 to 12 days. For the same compound, the “Adverse drug reactions on daily clinical monitoring” value (shortened to “Adverse drug reactions”) [3] was “No signs of adverse drug reactions were observed”, the “Clinical scores compared to calves receiving diluent only” value [3] was “attenuated clinical scores” and the CC50 at 4 days [4] was 212000 nM. The EC50 [5] was 1300 ± 500 nM, the EC50 [2, 7] was 53 ± 25 nM and the “SI (selectivity index, ratio of CC50 and EC50)” value [2] was 4000.
With Cc1ccc2nc(Cn3ccc4nc(-c5cn(C)nc5C)nc-4c3)sc2c1 [CPD-10, 2-((2-(1,3-dimethyl-1H-pyrazol-4-yl)-5H-imidazo[4,5-c]pyridin-5-yl)methyl)-6-methylbenzo[d]thiazole] the “Animals showing signs of dehydration” value [3] was “None”, the “Buffy coat samples virus isolation positive” value [3] was 55% and the “Samples virus isolation positive for BVDV in total” value [3] was 32 samples. The “Nasal swab samples virus isolation positive” value [3] was 43%, the “Adverse side effects on serial complete blood cell counts or serum chemistry panels” value [3] was “No evidence of adverse side effects” and the “Period in which leukopenia (<5000 leukocytes/μL) was seen” value [3] was 6 to 8 days. For the same compound, the “Adverse drug reactions” value [3] was “No signs of adverse drug reactions were observed”, the “Clinical scores compared to calves receiving diluent only” value [3] was “attenuated clinical scores” and the CC50 at 4 days [4] was 231000 nM. For the same compound, the EC50 [5] was 4300 ± 1900 nM, the EC50 [2, 7] was 80 ± 32 nM and the “SI (selectivity index, ratio of CC50 and EC50)” value [2] was 2888.
For Cc1nc(Cn2ccc3nc(-c4ccccc4F)nc-3c2)sc1-c1ccccc1 [CPD-29, 2-((2-(2-fluorophenyl)-5H-imidazo[4,5-c]pyridin-5-yl)methyl)-4-methyl-5-phenylthiazole], the CC50 at 4 days [4] was > 50000 nM, the EC50 [5] was 2800 ± 1400 nM and the EC50 [2, 7] was 257 ± 107 nM. For the same compound, the “SI (selectivity index, ratio of CC50 and EC50)” value [2] was >195.
In the case of Fc1ccccc1-c1cc2ccn(Cn3nnc4ccccc43)cc-2n1 [Compound I, 1-{[2-(2-fluorophenyl)-6H-pyrrolo[2,3-c]pyridin-6-yl]methyl}-1H-benzotriazole], the CC50 at 4 days [4] is reported as 22000 nM, the “Antibody titre of seroconverted calf on Day 14” value ([6]; 7 days, Day 14) is reported as 16 and the “Calves seroconverted (anti-BVDV neutralizing antibodies) by Day 14” value ([6]; 7 days, Day 14 post challenge) is reported as 1 out of 5. The “Average anti-BVDV neutralising antibody titre on Day 28” value ([6]; 7 days, Day 28) was 64, the “Haematology and clinical chemistry versus control group” value ([6]; calves, 7 days, Day 0, 7, 14, 21, 28) was “did not reveal any difference between both treatment groups” and the “Adverse drug reactions” value ([6]; calves, 7 days, Day 0 to Day 28) was “No signs of adverse drug reactions were observed”. The “BVDV virus isolation from buffy coat samples during treatment” value ([6]; calves, Day 0 to Day 6) was “could not be detected”, the EC50 [2, 7] was 9 ± 8 nM and the “SI (selectivity index, ratio of CC50 and EC50)” value [2] was 2444.
In the case of Fc1ccc(OC(F)(F)F)cc1-c1nc2ccn(Cn3nnc4ccccc43)cc-2n1 [CPD-40, 1-((2-(2-fluoro-5-(trifluoromethoxy)phenyl)-5H-imidazo[4,5-c]pyridin-5-yl)methyl)-1H-benzo[d][1,2,3]triazole], the CC50 at 4 days [4] is reported as 48000 nM, the EC50 [5] is reported as 5900 nM and the EC50 [2, 7] is reported as 89 ± 18 nM. For the same compound, the “SI (selectivity index, ratio of CC50 and EC50)” value [2] was 539.
With COc1ncccc1-c1cc2ccn(Cc3nc4ccc(C)cc4s3)cc-2n1 [Compound XIV, 2-{[2-(2-methoxypyridin-3-yl)-6H-pyrrolo[2,3-c]pyridin-6-yl]methyl}-6-methyl-1,3-benzothiazole] the CC50 at 4 days [4] was 4000 nM, the EC50 [2, 7] was 17 nM and the “SI (selectivity index, ratio of CC50 and EC50)” value [2] was 235.
For Cc1c(-c2cc3cn(Cn4nnc5ccccc54)ccc-3n2)cnn1C [Compound XXIV, 1-((2-(1,5-dimethyl-1H-pyrazol-4-yl)-5H-pyrrolo[3,2-c]pyridin-5-yl)methyl)-1H-benzotriazole], the CC50 at 4 days [4] was 12000 nM, the EC50 [2, 7] was 76 ± 19 nM and the “SI (selectivity index, ratio of CC50 and EC50)” value [2] was 158.
For Cc1cc(-c2nc3ccn(Cc4cc(-c5cc(F)ccc5F)no4)cc-3n2)cs1 [CPD-48, 3-(2,5-difluorophenyl)-5-((2-(5-methylthiophen-3-yl)-5H-imidazo[4,5-c]pyridin-5-yl)methyl)isoxazole], the CC50 at 4 days [4] was 27000 nM, the EC50 [2, 7] was 395 ± 22 nM and the “SI (selectivity index, ratio of CC50 and EC50)” value [2] was 68.
In the case of Cc1c(-c2cc3ccn(Cn4nnc5ccccc54)cc-3n2)cnn1C [Compound VIII, 1-[(2-(1,5-dimethyl-1H-pyrazol-4-yl)-6H-pyrrolo[2,3-c]pyridin-6-yl)methyl]-1H-benzotriazole], the CC50 at 4 days [4] is reported as > 50000 nM, the EC50 [2, 7] is reported as 335 ± 80 nM and the “SI (selectivity index, ratio of CC50 and EC50)” value [2] is reported as >149.
For Cc1ccc2nc(Cn3ccc4nc(-c5ccccc5F)nc-4c3)[nH]c2c1 [CPD-36, 2-(2-fluorophenyl)-5-((6-methyl-1H-benzo[d]imidazol-2-yl)methyl)-5H-imidazo[4,5-c]pyridine], the CC50 at 4 days [4] was > 50000 nM, the EC50 [2, 7] was 403 ± 129 nM and the “SI (selectivity index, ratio of CC50 and EC50)” value [2] was >124.
For Cc1ccc2nc(Cn3ccc4cc(-c5cc(OCCO)ccc5F)nc-4c3)sc2c1 [Compound XII, 2-(4-fluoro-3-(6-((6-methyl-1,3-benzothiazol-2-yl)methyl)-6H-pyrrolo[2,3-c]pyridin-2-yl)phenoxy)ethan-1-ol], the CC50 at 4 days [4] was 5000 nM, the EC50 [2, 7] was 20 ± 7 nM and the “SI (selectivity index, ratio of CC50 and EC50)” value [2] was 250.
For Cc1ccc2oc(Cn3ccc4nc(-c5cnn(C)c5C)nc-4c3)nc2c1 [CPD-8, 2-((2-(1,5-dimethyl-1H-pyrazol-4-yl)-5H-imidazo[4,5-c]pyridin-5-yl)methyl)-5-methylbenzo[d]oxazole], the CC50 at 4 days [4] was > 50000 nM, the EC50 [2, 7] was 79 ± 4 nM and the “SI (selectivity index, ratio of CC50 and EC50)” value [2] was >633.
For Cc1ccc2nc(Cn3ccc4nc(-c5ccccc5OC(F)F)nc-4c3)sc2c1 [CPD-21, 2-((2-(2-(difluoromethoxy)phenyl)-5H-imidazo[4,5-c]pyridin-5-yl)methyl)-6-methylbenzo[d]thiazole], the CC50 at 4 days [4] was 31000 nM, the EC50 [2, 7] was 409 nM and the “SI (selectivity index, ratio of CC50 and EC50)” value [2] was 76.
In the case of Cc1c(-c2nc3ccn(Cc4nc5ccc6ccccc6c5s4)cc-3n2)cnn1C [CPD-6, 2-((2-(1,5-dimethyl-1H-pyrazol-4-yl)-5H-imidazo[4,5-c]pyridin-5-yl)methyl)naphtho[2,1-d]thiazole], the CC50 at 4 days [4] is reported as > 50000 nM, the EC50 [2, 7] is reported as 14 ± 1 nM and the “SI (selectivity index, ratio of CC50 and EC50)” value [2] is reported as >3571.
In the case of COc1ccc2oc(Cn3ccc4nc(-c5ccccc5F)nc-4c3)nc2c1 [CPD-33, 2-((2-(2-fluorophenyl)-5H-imidazo[4,5-c]pyridin-5-yl)methyl)-5-methoxybenzo[d]oxazole], the CC50 at 4 days [4] is reported as > 50000 nM, the EC50 [2, 7] is reported as 447 nM and the “SI (selectivity index, ratio of CC50 and EC50)” value [2] is reported as >112.
Cc1ccc2nc(Cn3ccc4nc(-c5cnn(C)c5C)nc-4c3)sc2c1 [CPD-1, 2-((2-(1,5-dimethyl-1H-pyrazol-4-yl)-5H-imidazo[4,5-c]pyridin-5-yl)methyl)-6-methylbenzo[d]thiazole] showed a CC50 at 4 days [4] of 231000 nM, an EC50 [5] of 300 ± 100 nM and an EC50 [2, 7] of 13 ± 5 nM. The “SI (selectivity index, ratio of CC50 and EC50)” value [2] was 17769.
For Cc1ccc2nc(Cn3ccc4nc(-c5ccccc5CO)nc-4c3)sc2c1 [CPD-45, (2-(5-((6-methylbenzo[d]thiazol-2-yl)methyl)-5H-imidazo[4,5-c]pyridin-2-yl)phenyl)methanol], the CC50 at 4 days [4] was > 50000 nM, the EC50 [2, 7] was 297 ± 107 nM and the “SI (selectivity index, ratio of CC50 and EC50)” value [2] was >168.
In the case of N#Cc1ccc(-c2cc3cn(Cn4nnc5ccccc54)ccc-3n2)cc1 [Compound XXII, 4-{5-[(1H-benzotriazol-1-yl)methyl]-5H-pyrrolo[3,2-c]pyridin-2-yl}benzonitrile], the CC50 at 4 days [4] is reported as 21000 nM, the EC50 [2, 7] is reported as 7 ± 5 nM and the “SI (selectivity index, ratio of CC50 and EC50)” value [2] is reported as 3000.
In the case of OCCOc1ccc(F)c(-c2cc3cn(Cn4nnc5ccccc54)ccc-3n2)c1 [Compound XIX, 2-(3-{5-[(1H-benzotriazol-1-yl)methyl]-5H-pyrrolo[3,2-c]pyridin-2-yl}-4-fluorophenoxy)ethan-1-ol], the CC50 at 4 days [4] is reported as > 50000 nM, the EC50 [2, 7] is reported as 97 ± 15 nM and the “SI (selectivity index, ratio of CC50 and EC50)” value [2] is reported as >515.
For Cc1c(-c2nc3ccn(Cc4nc5cc(Cl)ccc5s4)cc-3n2)cnn1C [CPD-4, 5-chloro-2-((2-(1,5-dimethyl-1H-pyrazol-4-yl)-5H-imidazo[4,5-c]pyridin-5-yl)methyl)benzo[d]thiazole], the CC50 at 4 days [4] was > 50000 nM, the EC50 [2, 7] was 84 ± 3 nM and the “SI (selectivity index, ratio of CC50 and EC50)” value [2] was >595.
With Cc1ccc2oc(Cn3ccc4nc(-c5ccccc5F)nc-4c3)nc2c1 [CPD-31, 2-((2-(2-fluorophenyl)-5H-imidazo[4,5-c]pyridin-5-yl)methyl)-5-methylbenzo[d]oxazole] the CC50 at 4 days [4] was > 50000 nM, the EC50 [2, 7] was 306 ± 98 nM and the “SI (selectivity index, ratio of CC50 and EC50)” value [2] was >163.

— US12577242B2, “Pyrrolopyridine and imidazopyridine antiviral compounds” (KATHOLIEKE UNIVERSITEIT LEUVEN, priority 2020, dated 2026)
